In one series the target is T1, Mutant EZH2 (Y641F) (Homo sapiens, UniProt Q15910, Y641F).
T1 construct: purchased BPS 51004
In words: AlphaLISA assay on mutant PRC2 complex, EZH2 Y641F. Type of series: biochemical. (In general: Alpha assays give light when donor and acceptor beads are brought close together.)

The subject of the next series is WSU-DLCL2 cells. In words: Calcein AM proliferation assay, WSU-DLCL2 cells. The following applies: Homo sapiens, read-out: WSU-DLCL2 proliferation IC50. Type of series: cell-based, human.
Another series deals with Karpas 422 cells. Nature of the series: Calcein AM proliferation assay, Karpas 422 cells. Type of series: cell-based, human. The following applies: Homo sapiens, read-out: Karpas422 proliferation IC50.
The target in the next series is wild-type EZH2 (Homo sapiens, UniProt Q15910). In words: Radiometric assay of activity on wild-type PRC2 EZH2.
Chain of wild-type EZH2 (Q15910 whole entry): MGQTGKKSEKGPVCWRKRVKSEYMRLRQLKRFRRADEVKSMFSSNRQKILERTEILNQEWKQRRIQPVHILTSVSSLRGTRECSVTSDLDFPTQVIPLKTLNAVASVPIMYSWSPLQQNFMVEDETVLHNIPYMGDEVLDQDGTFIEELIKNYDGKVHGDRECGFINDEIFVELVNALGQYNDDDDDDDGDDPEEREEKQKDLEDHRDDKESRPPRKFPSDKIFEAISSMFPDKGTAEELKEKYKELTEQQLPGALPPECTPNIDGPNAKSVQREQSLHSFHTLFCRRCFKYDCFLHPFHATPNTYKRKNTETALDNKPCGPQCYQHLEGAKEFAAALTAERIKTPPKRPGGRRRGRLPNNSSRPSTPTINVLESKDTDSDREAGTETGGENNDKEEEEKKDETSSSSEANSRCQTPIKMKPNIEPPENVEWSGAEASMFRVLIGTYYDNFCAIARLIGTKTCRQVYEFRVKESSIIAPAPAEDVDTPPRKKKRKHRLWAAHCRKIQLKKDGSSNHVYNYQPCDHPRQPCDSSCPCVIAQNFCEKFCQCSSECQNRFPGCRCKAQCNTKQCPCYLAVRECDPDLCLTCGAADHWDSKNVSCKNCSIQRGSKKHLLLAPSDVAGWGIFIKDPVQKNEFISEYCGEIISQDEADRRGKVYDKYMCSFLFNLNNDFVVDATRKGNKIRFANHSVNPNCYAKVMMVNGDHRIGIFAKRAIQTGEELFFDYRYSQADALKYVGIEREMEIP
Chain of wild-type EZH2 (O75530 whole entry partner): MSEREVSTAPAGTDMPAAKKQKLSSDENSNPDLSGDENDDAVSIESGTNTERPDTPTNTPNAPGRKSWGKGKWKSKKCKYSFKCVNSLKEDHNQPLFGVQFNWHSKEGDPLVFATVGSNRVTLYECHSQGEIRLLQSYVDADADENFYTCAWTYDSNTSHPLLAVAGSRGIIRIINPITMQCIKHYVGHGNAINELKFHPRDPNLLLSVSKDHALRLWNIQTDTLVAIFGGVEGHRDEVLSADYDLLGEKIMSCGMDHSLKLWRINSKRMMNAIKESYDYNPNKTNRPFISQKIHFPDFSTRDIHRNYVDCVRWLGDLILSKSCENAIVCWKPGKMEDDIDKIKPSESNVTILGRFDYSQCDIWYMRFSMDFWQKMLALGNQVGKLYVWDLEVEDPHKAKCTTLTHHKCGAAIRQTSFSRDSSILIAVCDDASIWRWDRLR
Chain of wild-type EZH2 (Q15022 whole entry partner): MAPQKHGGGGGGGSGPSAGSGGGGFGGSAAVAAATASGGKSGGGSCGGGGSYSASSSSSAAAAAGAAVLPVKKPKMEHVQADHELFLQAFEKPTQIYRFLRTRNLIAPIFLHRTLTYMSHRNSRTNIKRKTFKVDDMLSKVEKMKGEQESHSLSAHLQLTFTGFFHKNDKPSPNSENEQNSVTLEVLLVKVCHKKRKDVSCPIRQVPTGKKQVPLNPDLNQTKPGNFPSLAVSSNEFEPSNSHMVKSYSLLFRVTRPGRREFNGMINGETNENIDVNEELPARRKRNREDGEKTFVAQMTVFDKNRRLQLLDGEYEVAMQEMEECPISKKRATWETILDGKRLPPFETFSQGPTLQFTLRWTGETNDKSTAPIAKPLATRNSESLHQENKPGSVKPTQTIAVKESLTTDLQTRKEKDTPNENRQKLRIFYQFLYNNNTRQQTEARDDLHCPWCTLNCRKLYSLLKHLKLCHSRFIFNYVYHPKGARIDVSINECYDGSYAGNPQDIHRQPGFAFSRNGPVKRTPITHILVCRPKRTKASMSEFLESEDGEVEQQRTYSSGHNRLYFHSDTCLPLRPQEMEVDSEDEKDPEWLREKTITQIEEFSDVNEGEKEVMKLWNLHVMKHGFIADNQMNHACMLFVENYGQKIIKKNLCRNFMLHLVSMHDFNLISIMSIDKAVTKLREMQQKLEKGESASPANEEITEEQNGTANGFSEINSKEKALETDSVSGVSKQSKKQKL
Chain of wild-type EZH2 (Q09028 whole entry partner): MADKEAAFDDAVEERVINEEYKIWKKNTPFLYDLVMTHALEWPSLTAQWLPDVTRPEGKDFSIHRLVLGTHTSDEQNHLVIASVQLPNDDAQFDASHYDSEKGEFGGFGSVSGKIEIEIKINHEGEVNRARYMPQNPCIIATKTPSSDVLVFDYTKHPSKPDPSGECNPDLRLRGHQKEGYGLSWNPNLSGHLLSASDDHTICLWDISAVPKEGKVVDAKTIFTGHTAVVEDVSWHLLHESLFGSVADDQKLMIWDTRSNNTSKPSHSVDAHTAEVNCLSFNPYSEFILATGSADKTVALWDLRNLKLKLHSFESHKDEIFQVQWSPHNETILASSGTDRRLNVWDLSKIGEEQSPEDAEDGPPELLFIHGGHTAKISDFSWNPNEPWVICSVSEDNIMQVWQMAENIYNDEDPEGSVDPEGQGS
The next series concerns Pfeiffer cells. In words: Calcein AM proliferation assay, Pfeiffer cells. Type of series: cell-based, human. The following applies: Homo sapiens, Pfeiffer, read-out: Pfeiffer proliferation IC50.
A short description of series [1]: Pharmacokinetics experiment in rats. In kind it is in vivo. The following applies: rat, plasma, male SD rats; for bioavailability: oral 20 mg/kg vs intravenous 4 mg/kg, read-out: Bioavailability (F %); for AUC: read-out: Area under the curve (AUC); for half-life: read-out: Half life (T1/2) (converted); for Cmax: read-out: Blood drug level (Cmax). As to the method:
Male SD rats weighing 200-300 g and 8 weeks old were used as experimental animals. […] The pharmacokinetic behavior of the compound of the present invention in rats was studied, and the pharmacokinetic characteristics thereof were evaluated.
A certain amount of the compound was weighed, dissolved in 0.10% tween for vortex and ultrasound, and then 0.5% sodium carboxymethyl cellulose (CMC-Na) solution was added to prepare a uniform solution.
The above-mentioned compounds were applied intravenously and orally to rats at a dose of 4 mg/kg and a dose of 20 mg/kg, respectively. At 0.083 h, 0.25 h, 0.5 h, 1.0 h, 2.0 h, 4.0 h, 6.0 h, 8.0 h, 12.0 h, and 24.0 h after application, 0.2 mL of blood was collected from the orbit, and placed in an anticoagulant tube, which was centrifuged at 6000 rpm for 10 minutes at 4° C. The plasma was separated and stored at −80° C.

Where [2] appears, read: WSUDLCL2, day 14 data, Calcein AM staining.
Setting [3] is: KARPAS-422, day 14 data, Calcein AM staining.
[4] abbreviates: day 14 data, Calcein AM staining.

Like-named read-outs stand apart in the source and are kept apart here.

The bioavailability is dose-corrected exposure relative to a reference, in per cent. In general, AUC refers to the area under the concentration-time curve, a measure of exposure. A word on the Cmax: it is the maximum level reached in the sampled fluid or tissue.

T1 sequence (Q15910 whole entry Y641F): as the sequence (Q15910 whole entry) above, with Y641F counted along it
T1 sequence (O75530 whole entry partner): as the sequence (O75530 whole entry partner) above
T1 sequence (Q15022 whole entry partner): as the sequence (Q15022 whole entry partner) above
T1 sequence (Q09028 whole entry partner): as the sequence (Q09028 whole entry partner) above
T1 sequence (Q6ZN18 whole entry partner): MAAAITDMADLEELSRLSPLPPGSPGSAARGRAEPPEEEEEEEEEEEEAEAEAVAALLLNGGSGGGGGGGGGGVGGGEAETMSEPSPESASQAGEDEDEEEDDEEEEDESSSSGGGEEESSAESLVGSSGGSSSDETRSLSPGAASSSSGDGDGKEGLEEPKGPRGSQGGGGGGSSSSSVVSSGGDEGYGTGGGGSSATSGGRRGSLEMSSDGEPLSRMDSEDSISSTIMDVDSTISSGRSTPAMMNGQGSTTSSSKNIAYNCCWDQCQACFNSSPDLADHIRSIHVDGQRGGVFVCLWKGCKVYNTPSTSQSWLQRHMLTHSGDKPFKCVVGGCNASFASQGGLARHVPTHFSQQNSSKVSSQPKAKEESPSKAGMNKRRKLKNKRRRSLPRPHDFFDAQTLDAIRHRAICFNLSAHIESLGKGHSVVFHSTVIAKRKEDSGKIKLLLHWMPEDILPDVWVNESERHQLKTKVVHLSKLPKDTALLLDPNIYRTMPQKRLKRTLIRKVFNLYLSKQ

In the case of `CCN(c1cc(-c2ccc(C3(C#N)CCOCC3)cc2)c(Cl)c(C(=O)NCc2c(C)cc(C)[nH]c2=O)c1C)C1CCOCC1` [Compound 9, 2-chloro-4′-(4-cyanotetrahydro-2H-pyran-4-yl)-N-((4,6-dimethyl-2-oxo-1,2-dihydropyridin-3-yl)methyl)-5-(ethyl(tetrahydro-2H-pyran-4-yl)amino)-4-methyl-[1,1′-biphenyl]-3-formamide], the IC50 at Mutant EZH2 (Y641F) was 0.48 nM; in the series on WSU-DLCL2 cells (setting [2]), 4.68 nM; with Karpas 422 cells (setting [3]), 4.15 nM; against wild-type EZH2, 0.9 nM; in the series on Pfeiffer cells (setting [4]), 3.47 nM.

As to `CCN(c1cc(-c2ccc3c(c2)CCC3N2CCOCC2)cc(C(=O)NCc2c(C)cc(C)[nH]c2=O)c1C)C1CCOC(C)C1` (centres unmarked) [Compound 14, N-((4,6-dimethyl-2-oxo-1,2-dihydropyridin-3-yl)methyl)-3-((2-methyltetrahydro-2H-pyran-4-yl)(ethyl)amino)-2-methyl-5-(1-morpholino-2,3-dihydro-1H-inden-5-yl)benzamide], the results for the IC50 in the series on WSU-DLCL2 cells (setting [2]), in the series with Karpas 422 cells (setting [3]) and in the series with Pfeiffer cells (setting [4]) were 4.15 nM, 3.76 nM and 2.89 nM, respectively.

`CCN(c1cc(-c2cc(F)c3c(c2)CCC3N2CCOCC2)cc(C(=O)NCc2c(C)cc(C)[nH]c2=O)c1C)C1CCOCC1` (centres unmarked) [Compound 26]: the IC50 is 9.42 nM in the series with WSU-DLCL2 cells (setting [2]), 6.47 nM in the series with Karpas 422 cells (setting [3]) and 5.86 nM in the series on Pfeiffer cells (setting [4]).

In the case of `CCN(c1cc(N2Cc3ccc(CN4CCOCC4)cc3C2)cc(C(=O)NCc2c(C)cc(C)[nH]c2=O)c1C)C1CCOCC1` [Compound 20, N-((4,6-dimethyl-2-oxo-1,2-dihydropyridin-3-yl)methyl)-3-(ethyl (tetrahydro-2H-pyran-4-yl)amino)-2-methyl-5-((5-morpholinomethyl)isoindolin-2-yl)benzamide], the figures for the IC50 in the series on WSU-DLCL2 cells (setting [2]), in the series on Karpas 422 cells (setting [3]) and with Pfeiffer cells (setting [4]) were 7.84 nM, 3.62 nM and 2.85 nM, respectively.

On to `CCN(c1cc(-c2ccc(C3(C(=O)O)CCOCC3)cc2)cc(C(=O)NCc2c(C)cc(C)[nH]c2=O)c1C)C1CCOCC1` [Compound 2, 4-(3′-(((4,6-dimethyl-2-carbonyl-1,2-dihydropyridin-3-yl)methyl)carbamoyl)-5′-(ethyl(tetrahydro-2H-pyran-4-yl)amino)-4′-methyl-[1,1′-biphenyl]-4-yl)tetrahydro-2H-pyran-4-carboxylic Acid], for which the IC50 in the series on WSU-DLCL2 cells (setting [2]) is 1.58 nM; in the series with Karpas 422 cells (setting [3]), 1.08 nM.

`CCN(c1cc(N2Cc3ccc(N(C)C)cc3C2)cc(C(=O)NCc2c(C)cc(C)[nH]c2=O)c1C)C1CCOCC1` [Compound 17, N-((4,6-dimethyl-2-oxo-1,2-dihydropyridin-3-yl)methyl)-5-(5-(dimethylamino)isoindolin-2-yl)-3-(ethyl(tetrahydro-2H-pyran-4-yl)amino)-2-methylbenzamide]: the IC50 in the series on WSU-DLCL2 cells (setting [2]) was 3.71 nM; with Karpas 422 cells (setting [3]) it was 2.6 nM; with Pfeiffer cells (setting [4]) it was 1.27 nM.

On to `CCN(c1ccc2c(c1)CN(c1cc(C(=O)NCc3c(C)cc(C)[nH]c3=O)c(C)c(N(CC)C3CCOCC3)c1)C2)C1CCOCC1` [Compound 22, N-((4,6-dimethyl-2-oxo-1,2-dihydropyridin-3-yl)methyl)-3-(ethyl (tetrahydro-2H-pyran-4-yl)amino)-5-(5-(ethyl(tetrahydro-2H-pyran-4-yl)amino)isoindolin-2-yl)-2-methylbenzamide], for which the IC50 in the series with WSU-DLCL2 cells (setting [2]) was 6.38 nM; in the series with Karpas 422 cells (setting [3]), 3.67 nM; against wild-type EZH2, 0.71 nM; in the series on Pfeiffer cells (setting [4]) it was 1.87 nM.

`CCN(c1cc(-c2ccc3c(c2)CCC3N2CCOCC2)c(F)c(C(=O)NCc2c(C)cc(C)[nH]c2=O)c1C)C1CCOCC1` (centres unmarked) [Compound 11, N-((4,6-dimethyl-2-oxo-1,2-dihydropyridin-3-yl)methyl)-3-(ethyl (tetrahydro-2H-pyran-4-yl)amino)-6-fluoro-2-methyl-5-(1-morpholino-2,3-dihydro-1H-inden-5-yl)benzamide]: the IC50 at Mutant EZH2 (Y641F) was 0.54 nM; in the series with WSU-DLCL2 cells (setting [2]), 2.92 nM; with Karpas 422 cells (setting [3]), 1.87 nM; at wild-type EZH2 it was 0.6 nM; in the series on Pfeiffer cells (setting [4]), 1.08 nM. Further, in series [1], the bioavailability was found to be 26.6%. Further, the area under the curve (AUC) turned out to be 954 ng·h/mL in series [1] (intravenous dosing 4 mg/kg) and 1270 ng·h/mL in series [1] (oral dosing 20 mg/kg). Moreover, the half-life in series [1] (intravenous dosing 4 mg/kg) is 1.34 h. Besides, the Cmax in series [1] (oral dosing 20 mg/kg) worked out at 489 ng/mL.

Take `CCN(c1cc(-c2ccc(C3(CO)CCOCC3)cc2)cc(C(=O)NCc2c(C)cc(C)[nH]c2=O)c1C)C1CCOCC1` [Compound 3, N-((4,6-dimethyl-2-carbonyl-1,2-dihydropyridin-3-yl)methyl)-5-(ethyl(tetrahydro-2H-pyran-4-yl)amino)-4′-(4-(hydroxymethyl)tetrahydro-2H-pyran-4-yl)-4-methyl-[1,1′-biphenyl]-3-carboxamide]: the IC50 in the series with WSU-DLCL2 cells (setting [2]) was 2.68 nM; with Karpas 422 cells (setting [3]) it was 2.5 nM; in the series on Pfeiffer cells (setting [4]), 1.67 nM.

As to `CCN(c1cc(-c2ccc(C3(COC)CCOCC3)cc2)cc(C(=O)NCc2c(C)cc(C)[nH]c2=O)c1C)C1CCOCC1` [Compound 5, N-((4,6-dimethyl-2-carbonyl-1,2-dihydropyridin-3-yl)methyl)-5-(ethyl(tetrahydro-2H-pyran-4-yl)amino)-4′-(4-(methoxymethyl)tetrahydro-2H-pyran-4-yl)-4-methyl-[1,1′-biphenyl]-3-carboxamide], the IC50 in the series with WSU-DLCL2 cells (setting [2]) is 5.85 nM; with Karpas 422 cells (setting [3]), 3.23 nM; in the series on Pfeiffer cells (setting [4]), 2.84 nM.

Consider `CCN(c1cc(-c2ccc3c(c2)CCC3N2CCOCC2)cc(C(=O)NCc2c(OC)cc(C)[nH]c2=O)c1C)C1CCOCC1` (centres unmarked) [Compound 6, 3-(ethyl(tetrahydro-2H-pyran-4-yl)amino)-N-((4-methoxy-6-methyl-2-oxo-1,2-dihydropyridin-3-yl)methyl)-2-methyl-5-(1-morpholino-2,3-dihydro-1H-inden-5-yl)benzamide], for which the bioavailability in series [1] was found to be 33.3%. The AUC came out at 966 ng·h/mL in series [1] (intravenous dosing 4 mg/kg) and 1610 ng·h/mL in series [1] (oral dosing 20 mg/kg). The half-life in series [1] (intravenous dosing 4 mg/kg) was 1.12 h. The Cmax in series [1] (oral dosing 20 mg/kg) worked out at 456 ng/mL. Further, the IC50 in the series with WSU-DLCL2 cells (setting [2]) was 5.13 nM; with Karpas 422 cells (setting [3]), 4.15 nM; against wild-type EZH2, 0.52 nM; in the series with Pfeiffer cells (setting [4]), 3.2 nM.

Regarding `CCN(c1cc(-c2ccc3c(c2)CCC3N2CCOCC2)cc(C(=O)NCc2c(C)cc(C)[nH]c2=O)c1C)C1CC(C)OC(C)C1` (centres unmarked) [Compound 13, N-((4,6-dimethyl-2-oxo-1,2-dihydropyridin-3-yl)methyl)-3-((2,6-dimethyltetrahydro-2H-pyran-4-yl)(ethyl)amino)-2-methyl-5-(1-morpholino-2,3-di hydro-1H-inden-5-yl)benzamide], the IC50 was 0.81 nM at Mutant EZH2 (Y641F); 1.28 nM in the series on WSU-DLCL2 cells (WSUDLCL2, […]); 0.95 nM in the series on Karpas 422 cells (KARPAS-422, […]); 0.95 nM at wild-type EZH2; 0.87 nM with Pfeiffer cells ([…]). The bioavailability in series [1] was determined as 34.5%. Further, the AUC in series [1] (intravenous dosing 4 mg/kg) came to 977 ng·h/mL; in series [1] (oral dosing 20 mg/kg), 1690 ng·h/mL. The half-life in series [1] (intravenous dosing 4 mg/kg) is 1.34 h. For the same compound, in series [1] (oral dosing 20 mg/kg), the Cmax was 403 ng/mL.

For `CCN(c1cc(-c2ccc(C3(C#N)CCOCC3)cc2)cc(C(=O)NCc2c(C)cc(C)[nH]c2=O)c1C)C1CCOCC1` [Compound 1, 4′-(4-cyanotetrahydro-2H-pyran-4-yl)-N-((4,6-dimethyl-2-carbonyl-1,2-dihydropyridin-3-yl)methyl)-5-(ethyl(tetrahydro-2H-pyran-4-yl)amino)-4-methyl-[1,1′-biphenyl]-3-formamide], the IC50 in the series with WSU-DLCL2 cells (WSUDLCL2, […]) is 2.87 nM; in the series on Karpas 422 cells (KARPAS-422, […]) it was 2.15 nM; in the series with Pfeiffer cells ([…]), 1.34 nM.

With `CCN(c1cc(-c2ccc3c(c2)C(C)(C)CC3N2CCOCC2)cc(C(=O)NCc2c(C)cc(C)[nH]c2=O)c1C)C1CCOCC1` (centres unmarked) [Compound 27], the IC50 with WSU-DLCL2 cells (setting [2]) was 1.71 nM.

The values above are taken from US12595267B2, “Preparation method for amide compound and application thereof in field of medicine” (Shanghai Synergy Pharmaceutical Sciences Co., Ltd., priority 2019, dated 2026).
